Laboratory results as given in US8609413B2, “Neurons, astrocytes and oligodendrocytes differentiated from a mammalian pluripotent or neural stem cells exposed to a pyridine deriviative” (Research Development Foundation, priority 2007, dated 2013).
“Also recorded” adds a separate entry of the source.

Columns and labels:
H1 human ES cells = test: Neuronal differentiation of human ES cells, differentiation protocol 2 (clinical grade protocol); type: cell-based
Experimental: Undifferentiated human H1 ES cells were cultured on irradiated mouse embryonic fibroblasts (MEF). To carry out neuronal differentiation, ES cells were mechanically dissociated into small aggregates (50-300 cells) and cultured in suspension on low-attachment six-well plates. For the first 4 days, the cells were cultured in neuronal induction medium (DMEM F-12 (Gibco), N2 supplement (Gibco), penicillin and streptomycin (Gibco), phenazopyridine 3:M). Then the medium was changed to simple neuronal proliferation medium (DMEM F-12, N2 supplement, 20 ng/ml human recombinant bFGF, penicillin and streptomycin, phenazopyridine 3:M) for 2 additional days. Subsequently, 15-20 6-day old cell aggregates were plated on polyornithine/laminin-coated six-well plates and maintained in simple neuronal proliferation medium for 7 days. Cells were then mechanically dissociated and replated in N2 medium (DMEM high glucose (Gibco), 10 ng/ml human recombinant bFGF (Gibco), N2 supplement (Gibco), penicillin and streptomycin (Gibco)) at a density of 20,000 cells per cm^2 on polyornithine/laminin-coated six-well plate. Cells were passaged when they reached 80-90% confluency, and were maintained in the same culture conditions for 2 additional weeks. Stock phenazopyridine (Microsource Discovery Inc.) was prepared by diluting phenazopyridine powder in DMSO (Sigma-Aldrich) at a concentration of 6 mM. The stock solution was diluted at 1:2000 in cell culture media to obtain a final concentration of 3:M Each of the components of the neuronal induction medium, the simple neuronal proliferation medium and the N2 medium can be replaced with clinical grade equivalents. Therefore, the foregoing procedure of carrying out neuronal differentiation is referred to herein as the “clinical grade protocol.”
The effects of phenazopyridine on ES cell differentiation were investigated using the clinical grade-compatible protocol. The first step involved generation of spheres of cells grown in suspension for 6 days, followed by replating on polyornithine/laminin coated plastic. One week later, cells were passaged at 2×10^4 cells/cm^2 on polyornithine/laminin coated plastic, and during the following two weeks cells were passaged when they reached 80-90% confluency. Cells were treated with either DMSO (1:2000) or with phenazopyridine (PAP) at 3:M with equivalent final DMSO concentration throughout the 4 week period.
Two different protocols were used to induce neuronal differentiation of human ES cells. In the first protocol, human ES cells were mechanically dissociated into small aggregates and plated on laminin/polyornithine coated six-well plates. Cells were cultured 2 weeks in human SR medium (DMEM F-12 supplemented with 15% knockout serum (Gibco), non-essential amino acids, penicillin and streptomycin), followed by 4 weeks in N2 medium. Compounds were added throughout these first 6 weeks. Subsequently, cells were mechanically dissociated and replated on polyornithine/laminin-coated 6 well plates. Throughout the text, this first differentiation protocol will be referred to as “differentiation protocol 1”. The second differentiation protocol was derived from previously described differentiation conditions (Nat et al., 2007). In the second differentiation protocol, undifferentiated human ES cells were mechanically dissociated into small aggregates and cultured in suspension on low-attachment six-well plates. For the first 4 days, they were cultured in neuronal induction medium (DMEM F-12, N2 supplement, penicillin and streptomycin), which was changed to simple neuronal proliferation medium (DMEM F-12, N2 supplement, 20 ng/ml bFGF, penicillin and streptomycin) for 2 additional days. Subsequently, aggregates were plated on polyornithine/laminin-coated six-well plates and maintained in simple neuronal proliferation medium for 7 days. Cells were then mechanically dissociated and replated in N2 medium at a density of 2×10^4 cells per cm^2 for two additional weeks.

H1 ES cells = test: Real Time PCR of neural and non-neural markers during differentiation protocol 2; type: cell-based, human; settings: 3 μM
Experimental: Real Time PCR. Reactions were run on an ABI Prism 7900 HT detection system (Applied Biosystems). ALAS and GusB were used as housekeeping genes. […] Sequences of the primers are shown in supplementary table.
The kinetics of emergence of neural and non-neural markers in DMSO and 3 μM phenazopyridine-treated H1 ES cells were evaluated using real time PCR. […] Expression of non-neural markers was next evaluated. […] The inventors reasoned that the persistence of these markers could be temporary and therefore investigated their expression after four weeks of differentiation.

CGR8 mouse ES cells = test: Secondary screening assay: neuronal differentiation of mouse ES cells, total neurite outgrowth; type: cell-based; settings: 5 days with compound in SR medium, then 4 days N2 medium without compound; vs control cells
Experimental: To perform the secondary screening assay, neuronal differentiation of CGR8 cells was carried out in SR medium (DMEM high glucose supplemented with 15% KO serum (Gibco), non-essential amino acids, penicillin and streptomycin). Cells were plated at 10^5 cells per 10 cm cell culture dish and maintained is SR medium for 5 days with compounds found in the primary screen. Cells were subsequently dissociated and replated at 4×10^4 cells/cm^2 in N2 medium (DMEM high glucose, N2 supplement, 10 ng/ml basic fibroblast growth factor, penicillin and streptomycin) and cultured for four additional days without compound addition. Immunostaining quantification. Immunostaining and nuclear staining quantifications were performed using the MetaXpress software (Molecular devices). Total neurite outgrowth was quantified using the neurite outgrowth analysis module, and total cell numbers were quantified with the count nuclei analysis module. For further studies, 32 compounds were selected with high Fluc/Rluc ratio. A dose-response analysis of Fluc/Rluc ratio was performed in the same conditions as used for the primary screen, using concentrations ranging from 100 nM to 100 μM. […] The amounts of neurons were quantified by calculating total neurite outgrowth identified by β3-tubulin immunoreactivity using an automated imaging system (see Methods above).

[1] = 3 μM, four weeks of differentiation

Structure (SMILES): Nc1ccc(/N=N/c2ccccc2)c(N)n1 [phenazopyridine]
- dissociation after mechanical passaging (H1 human ES cells; 3 μM vs DMSO): could easily be dissociated into single cells
- percentage of living single cells by trypan blue exclusion (survival of dissociated cells) (H1 human ES cells; 3 μM vs DMSO, at passaging at different time points): promotes survival of dissociated cells
- sphere morphology after one week of differentiation (H1 human ES cells; 3 μM vs DMSO, phase contrast): No apparent difference; also recorded: morphologically indistinct
- sphere morphology at two weeks of differentiation (H1 human ES cells; 3 μM vs DMSO, phase contrast): developed into big areas of monolayer surrounding the plated spheres; also recorded: developed bigger areas of monolayer at their periphery
- neuronal marker phenotype by immunostaining (H1 human ES cells; 3 μM, after four weeks of differentiation): Virtually all cells were nestin, Sox 1 and vimentin-positive, expressed β3-tubulin and Pax6 at low levels, and were negative for musashi
- cells nestin-positive with low levels of β3-tubulin (early neuronal precursors) (H1 human ES cells; [1]): approximately 98%
- non-neural cells (nestin and β3-tubulin negative) or differentiated neurons (β3-tubulin only) (H1 human ES cells; [1]): no non-neural cells or differentiated neurons were observed
- mitotic figures and PCNA-positive cells in monolayer area (H1 human ES cells; 3 μM, two weeks, vs DMSO): many mitotic figures and PCNA-positive cells
- expression of Oct-4 and brachyury (H1 ES cells; 2 weeks): increased
- expression of forebrain (Mash1) and ventral hindbrain (Nkx2.2, HoxB4, Olig2) markers (H1 ES cells; 2 weeks): also upregulated
- expression of α-fetoprotein (AFP) (H1 ES cells; 2 weeks): did not vary between both conditions
- expression of early (Pax6, nestin), intermediate (β3-tubulin, vimentin) and late (β3-tubulin, Map2) neuronal differentiation markers (H1 ES cells; 2 weeks of differentiation, vs control): upregulation
- expression of the same neural markers at 4 weeks (H1 ES cells; 4 weeks of differentiation): significant differences in the expression of the same markers at 4 weeks of differentiation were not observed
- downregulation of Oct4 (H1 ES cells; four weeks of differentiation): > 1000 fold
- downregulation of brachyury (H1 ES cells; four weeks of differentiation): > 10 fold
- downregulation of α-fetoprotein (H1 ES cells; four weeks of differentiation): > 1000 fold
- total neurite outgrowth identified by β3-tubulin immunoreactivity (CGR8 mouse ES cells): increase of total neurite outgrowth as compared to control cells
